Each block holds one molecule with its values, some of them ahead of it.
Key:
human monocytes [1] = assay: Chemotaxis (migration) of human monocytes, 48-well chamber; type: cell-based
From the text: (§1) Reagents and cells. Aβ peptide (Aβ42) and the peptide with reversed sequence (Aβ42-1) were purchased from California Peptide Research (Napa, Calif.). All peptides were examined for endotoxin contamination and were negative at highest concentrations used in the study. Human peripheral blood monocytes were isolated from buffy coats (National Institutes of Health Clinical Center, Bethesda, Md.) enriched for mononuclear cells by using iso-osmotic Percoll gradient. The purity of the cell preparations was examined by morphology and was >90%. Rat basophilic leukemia cell line (RBL-2H3) transfected with epitope-tagged N-formylpeptide receptor (FPR) (designated ETFR) was a kind gift of Dr. R. Snyderman (Duke University, Durham, N.C.). cDNA cloning and establishment of FPRL1-transfected human embryonic kidney (HEK) 293 cells (FPRL1/293) were described previously (Gao J. L. & Murphy P. M. 1993 J Biol Chem 268:[…]). All the transfected cells were maintained in culture media as described (Su S. B. et al. 1999 J Exp Med 189:395-402).
(§2) Chemotaxis assays and measurement of calcium mobilization. Chemotaxis assays were performed using 48-well chemotaxis chambers (Deng X. et al. 1999 Blood 94:1165-1673). The results were expressed as the mean number (±SD) of migrated cells in three high-powered fields in three replicate samples. Chemotaxis index, which represented the fold increase in the number of cells migrated in response to chemoattractants over the cell response to control medium, also was used. Ca^+ mobilization was measured by stimulating fura-2 AM-loaded human monocytes or receptor-transfected cells with various agents (Deng X. et al. 1999 Blood 94:1165-1673; Su S. B. et al. 1999 J Exp Med 189:395-402) and recording the ratio of fluorescence at 340 and 380 nm in a luminescence spectrometer with FL WinLab program (Perkin-Elmer, Beaconsfield, UK).

human monocytes [2] = assay: Ca2+ mobilization in fura-2 loaded human monocytes; type: cell-based
From the text: as §1, §2

FPRL1 [3] = target: T1, FPRL1 (Homo sapiens, UniProt P25090); assay: Ca2+ mobilization in FPRL1/293 cells; type: cell-based
T1 construct: expressed in transfected cells; host or cells: HEK 293
T1 sequence (P25090 1-351): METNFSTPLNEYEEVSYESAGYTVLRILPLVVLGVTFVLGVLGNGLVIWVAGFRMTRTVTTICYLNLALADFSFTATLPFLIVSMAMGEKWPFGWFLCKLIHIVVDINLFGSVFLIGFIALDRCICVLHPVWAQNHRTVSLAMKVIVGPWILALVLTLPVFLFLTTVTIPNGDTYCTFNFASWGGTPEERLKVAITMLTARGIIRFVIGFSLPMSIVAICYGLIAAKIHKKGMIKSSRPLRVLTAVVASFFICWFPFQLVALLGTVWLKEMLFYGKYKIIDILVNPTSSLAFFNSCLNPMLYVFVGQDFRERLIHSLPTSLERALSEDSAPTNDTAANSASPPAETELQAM
From the text: (§3) Reagents and cells. Aβ peptide (Aβ42) and the peptide with reversed sequence (Aβ42-1) were purchased from California Peptide Research (Napa, Calif.). All peptides were examined for endotoxin contamination and were negative at highest concentrations used in the study. Human peripheral blood monocytes were isolated from buffy coats (National Institutes of Health Clinical Center, Bethesda, Md.) enriched for mononuclear cells by using iso-osmotic Percoll gradient. The purity of the cell preparations was examined by morphology and was >90%. […]
as §2, with “Chemotaxis assays were performed using 48-well chemotaxis chambers (Deng X. et al. 1999 Blood 94:1165-1673).” left out, “Chemotaxis index, which represented the fold increase in the number of cells migrated in response to chemoattractants over the cell response to control medium, also was used.” left out

FPR = target: T2, FPR (Homo sapiens, UniProt P21462); assay: Ca2+ mobilization in ETFR cells (RBL-2H3 transfected with epitope-tagged FPR); type: cell-based
T2 construct: expressed in transfected cells; host or cells: RBL-2H3 (rat basophilic leukemia)
T2 sequence (P21462 1-350): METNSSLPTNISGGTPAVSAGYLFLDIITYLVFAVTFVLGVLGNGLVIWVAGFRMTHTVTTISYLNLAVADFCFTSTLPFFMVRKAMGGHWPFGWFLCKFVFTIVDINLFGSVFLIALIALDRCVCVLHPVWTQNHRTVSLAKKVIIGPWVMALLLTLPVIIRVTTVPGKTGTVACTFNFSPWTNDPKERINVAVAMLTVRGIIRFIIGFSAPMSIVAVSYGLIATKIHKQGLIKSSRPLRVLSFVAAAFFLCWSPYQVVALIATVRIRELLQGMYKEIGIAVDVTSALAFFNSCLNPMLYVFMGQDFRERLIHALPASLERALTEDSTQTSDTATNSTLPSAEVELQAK
From the text: as §3
as §2, with “Chemotaxis assays were performed using 48-well chemotaxis chambers (Deng X. et al. 1999 Blood 94:1165-1673).” left out, “Chemotaxis index, which represented the fold increase in the number of cells migrated in response to chemoattractants over the cell response to control medium, also was used.” left out

macrophages [4] = assay: Apoptosis of macrophages (annexin-V-FITC/PI flow cytometry); type: cell-based, human; conditions: 48 h; 10 μM Aβ42 or 1 μM W pep
Experimental: (§4) Detection of apoptosis. Apoptotic cells were detected by double labeling with annexin-V-FITC and propidium iodide (P1). Annexin-V binds to phosphatidylserine residues, which are translocated from the inner to the outer leaflet of the plasma membrane during the early stages of apoptosis (Koopman G. et al. 1994 Blood 84:1415-1420; Martin S. J. et al. 1995 J Exp Med 182:1545-1556). Necrotic cells were distinguished from annexin-V-positive cells by counterstaining with PI (final concentration 1 μg/ml) (Heidenreich S. et al. 1997 J Immunol 159:3178-3188; Mangan D. F. et al. 1991 J Immunol 146:1541-1546. Apoptotic cells were labeled by using an annexin-V kit according to manufacturer's instructions (Santa Cruz Biotechnology, Santa Cruz, Calif.) and analyzed by flow cytometry.

FPRL1 [5] = target: T1, FPRL1; assay: FPRL1 internalization in FPRL1/293 cells, fluorescence confocal microscopy; type: cell-based
Experimental: (§5) Human peripheral blood monocytes (PBM) were isolated from Buffy coats (Transfusion Medicine Department, NIH Clinical Center, Bethesda, Md.) by using iso-osmotic Percoll gradient. The purity of cell preparations by morphology was >90%. PBM were further differentiated to macrophages by culturing the cells in RPMI 1640 medium containing 0.1% bovine serum albumin, 0.01M HEPES (pH 7.4), and 20 ng/ml monocyte colony stimulating factor (MCSF, Pepro Tech, Rocky Hill, N.J.). The cells were plated on 4-well chamber slides (Nalge Nunc International, Rochester, N.Y.) at a density of 1×10^5 cells/well. HEK293 cells genetically engineered to express FPRL1 cDNA (FPRL1/293 cells) were kindly provided by Dr. P. M. Murphy (National Institute of Allergy and Infectious Diseases, NIH). FPRL1/293 cells were suspended in DMEM supplemented with 10% FBS (Hyclone, Logan, Utah), 1 mM glutamine (Gibco-BRL, Grand Island, N.Y.), and 800 μg/ml geneticin (G418, Gibco-BRL). The cells were also plated on 4-well chamber slides at a density of 2×10^5 cells/well.
Fluorescence confocal microscope. Human macrophages or FPRL1/293 cells grown on chamber slides were treated with FPRL1 agonists for different periods at 37° C. The cells were fixed in 4% paraformaldehyde for 10 min at room temperature. Slides were washed with PBS and incubated with 5% normal goat serum (Sigma) in PBS, 0.05% Tween-20 (PBS-T-NGS), for 1 h to block nonspecific binding sites and for permeabilization. The anti-Aβ42 and anti-FPRL1 antibodies were applied and the slides were incubated for 1 h at room temperature. […] The slides were mounted with an anti-fade, water-based mounting medium with 4,6-diamidino-2-phenylindole (DAPI; Vector Lab, Burlingame, Calif.) and analyzed under a laser scanning confocal fluorescence microscope (Leica TCS-4D DMIRBE, Heidelberg, Germany). Excitation wavelengths of 365 (for DAPI), 488 (for FITC), and 568 (for rhodamine) nm were used to generate fluorescence emission in blue, green, and red respectively. […]

macrophages [6] = assay: Congo red histochemistry of macrophages (fibril formation); type: cell-based, human
Experimental: Congo red histochemistry. Cells on chamber slides were fixed with 4% paraformaldehyde and stained with hematoxylin for 2 min at room temperature. After 20 min incubation in a saturated NaCl solution containing 80% ethanol and 0.1% NaOH, the slides were reacted for 20 min with 0.2% Congo red. Destaining and dehydration were completed by washing the slides sequentially in 95% ethanol and 100% ethanol, followed by xylene. Coverslips were applied using Permount and the slides were viewed under light microscopy.

FPRL1/293 cells = assay: Apoptosis of FPRL1/293 cells (annexin-V-FITC/PI flow cytometry); type: cell-based, human; conditions: 48 h; 10 μM Aβ42 or 1 μM W pep
Experimental: as §4

mouse neutrophils [7] = assay: Superoxide production in mouse neutrophils (Diogenes chemiluminescence); type: cell-based
Experimental: The cell population was consistently composed of >90% neutrophils, as determined by light microscopy of DiffQuick-stained cytospins. Thus, hereafter we will refer to this cell preparation as neutrophils. Superoxide Production. […] Then a mixture of the superoxide-specific chemiluminescence indicator reagent Diogenes (National Diagnostics, Atlanta, Ga.) was added to the cells (50% of total reaction volume) with appropriate stimuli or vehicle control, and superoxide dismutase-inhibitable chemiluminescence was measured in a luminometer (Labsystems Luminoskan; Helsinki, Finland). […] For sequential stimulation experiments, 5×10^4 FPR −/− neutrophils were distributed into microcentrifuge tubes, and test substances were added. The mixture was then immediately transferred to a chemiluminescence plate. After incubation at 37° C. for 8 min (when fMLF was the first stimulus) or 9 min (when Aβ was the first stimulus), Diogenes reagent plus the final stimulus was added, and the activity was monitored for 10 min. […] Each condition was tested in triplicate, and the mean of the mean number (grand mean) of superoxide dismutase-inhibitable relative light units throughout the duration of the assay and the corresponding standard errors of grand means were calculated. […]

mouse neutrophils [8] = conditions: neutrophils from wild type mice, cited from earlier work
[9] = target: mouse N-formylpeptide receptor 2 (FPR2), on transfected HEK 293 cells or endogenous on mouse neutrophils and N9 microglial cells (mouse) (UniProt O88536); assay: cell-based or functional assay
FPRL1 [10] = target: T1, FPRL1; assay: Aβ42/FPRL1 internalization in human macrophages, fluorescence confocal microscopy; type: cell-based; conditions: 30 min incubation at 37° C.
Experimental: as §5, with “FPRL1/293 cells were suspended in DMEM supplemented with 10% FBS (Hyclone, Logan, Utah), 1 mM glutamine (Gibco-BRL, Grand Island, N.Y.), and 800 μg/ml geneticin (G418, Gibco-BRL). The cells were also plated on 4-well chamber slides at a density of 2×10^5 cells/well.” left out
Fluorescence confocal microscope. […] The slides were mounted with an anti-fade, water-based mounting medium with 4,6-diamidino-2-phenylindole (DAPI; Vector Lab, Burlingame, Calif.) and analyzed under a laser scanning confocal fluorescence microscope (Leica TCS-4D DMIRBE, Heidelberg, Germany). Excitation wavelengths of 365 (for DAPI), 488 (for FITC), and 568 (for rhodamine) nm were used to generate fluorescence emission in blue, green, and red respectively. […]

FPRL1 [11] = target: T1, FPRL1; assay: Chemotaxis of FPRL1/293 cells; type: cell-based
From the text: as §3
as §2, with “Chemotaxis assays were performed using 48-well chemotaxis chambers (Deng X. et al. 1999 Blood 94:1165-1673).” left out, “Chemotaxis index, which represented the fold increase in the number of cells migrated in response to chemoattractants over the cell response to control medium, also was used.” left out

Chain of mouse N-formylpeptide receptor 2 (FPR2), on transfected HEK 293 cells or endogenous on mouse neutrophils and N9 microglial cells (mouse) (O88536 whole entry): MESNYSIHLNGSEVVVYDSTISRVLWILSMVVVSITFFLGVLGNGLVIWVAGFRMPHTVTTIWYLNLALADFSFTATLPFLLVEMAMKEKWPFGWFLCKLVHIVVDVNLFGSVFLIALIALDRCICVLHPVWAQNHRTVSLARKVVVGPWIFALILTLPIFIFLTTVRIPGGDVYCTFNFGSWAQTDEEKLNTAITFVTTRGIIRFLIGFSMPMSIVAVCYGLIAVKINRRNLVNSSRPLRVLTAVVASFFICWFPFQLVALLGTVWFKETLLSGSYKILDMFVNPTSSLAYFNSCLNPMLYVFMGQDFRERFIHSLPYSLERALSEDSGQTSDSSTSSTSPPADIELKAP

Molecule: Aβ42 “aged”: Aβ42 aged at 37° C., tested as the aggregated form
induction of monocyte migration (human monocytes [1]): lower potency than freshly dissolved peptide

Molecule: fucoidan
Ca2+ mobilization in human monocytes (human monocytes [2]): did not induce Ca^2+ mobilization
effect of prior stimulation on subsequent Ca2+ flux response of monocytes to Aβ42 (desensitization) (human monocytes [2]): did not affect monocyte response to subsequent stimulation with Aβ42

Ca2+ mobilization in FPRL1/293 cells (FPRL1 [3]): stimulated Ca^2+ mobilization
Ca2+ mobilization in ETFR cells (FPR): stimulated Ca^2+ mobilization
Molecule: GlyBSA: Glycated bovine albumin, a reported ligand for RAGE
Ca2+ mobilization in human monocytes (human monocytes [2]): potent inducer of Ca^2+ mobilization
effect of prior stimulation on subsequent Ca2+ flux response of monocytes to Aβ42 (desensitization) (human monocytes [2]): able to cross-desensitize the cell response to Aβ42

time to maximal FPRL1 internalization (FPRL1 [5]; 37° C.): 15 to 30 min
time until FPRL1 is back on the cell surface after removal of agonist (receptor recycling) (FPRL1 [5]; agonist removed after 30 min): 2 h
Molecule: WKYMVm [W pep]
apoptosis (macrophages [4]): did not increase the apoptosis
Congo red positive fibrils (macrophages [6]; incubation 24 h to 48 h): did not form Congo red positive fibrils
apoptosis (FPRL1/293 cells): did not increase the apoptosis

difference of EC50 of superoxide generation, FPR −/− versus FPR+/+ neutrophils (mouse neutrophils [7]): 10 fold
Molecule: CSCC[C@H](NC=O)C(=O)N[C@@H](CC(C)C)C(=O)N[C@@H](Cc1ccccc1)C(=O)O [fMLF, formyl-methionyl-leucyl-phenylalanine]
desensitization of Aβ42-induced Ca2+ flux in FPRL1/293 cells (FPRL1 [3]; prior stimulation): desensitized
effect of prior stimulation on subsequent Ca2+ flux response of monocytes to Aβ42 (desensitization) (human monocytes [2]): clearly inhibited the subsequent Ca^2+ flux response to Aβ42
effect of pretreatment on superoxide response to 10 μM Aβ (mouse neutrophils [7]; FPR −/− neutrophils, pretreated with 5 μM fMLF vs vehicle): markedly attenuated
optimum of second peak of chemotaxis dose-response curve (mouse neutrophils [8]): 10 µM
optimum of first peak of chemotaxis dose-response curve (mouse neutrophils [8]; peak due to FPR): ~500 nM

Molecule: bacterial chemotactic peptide formyl-methionyl-leucyl-phenylalanine (fMLF)
superoxide generation in neutrophils, EC50 in FPR -/- against FPR +/+ cells [9]: 10 fold

Molecule: COc1cc2c(c(OC)c1OC)-c1ccc(OC)c(=O)cc1[C@@H](NC(C)=O)CC2 [colchicine]
effect on internalization of Aβ42/FPRL1 complexes (FPRL1 [5]; 30 min incubation at 37° C.): failed to internalize
inhibition of Aβ42-induced chemotaxis (human monocytes [1]; monocytes): potent inhibitor of Aβ42-induced chemotaxis
effect on Congo red staining of macrophages incubated with Aβ42 (macrophages [6]; 48 h incubation with Aβ42): not significantly stained with Congo red
effect on internalization of Aβ42/FPRL1 complexes (FPRL1 [10]): failed to internalize
inhibition of Aβ42-induced chemotaxis (FPRL1 [11]): potent inhibitor of Aβ42-induced chemotaxis

Source: patent US20050130890A1, “Amyloid beta is a ligand for FPR class receptors” (priority 2001, published 2005)
